# Assay results published in patent US7582653B2, “Mercaptophenyl naphthyl methane compounds and synthesis thereof” (Council of Scientific & Industrial Research, priority 2003, dated 2009).
# Columns and labels:
# [1] = system: chick fetal bones in culture; test: Inhibition of PTH-induced resorption of 45Ca from chick fetal bones in culture (antiresorptive activity in vitro); assay type: cell-based; details: for T/C Ratio: PTH-induced 45Ca resorption, 96 h culture
# Description: Test Procedure for Evaluation of Antiosteoporosis (Antiresorptive) Activity in Vitro:
# Test solutions of the compounds of the present invention are prepared in appropriate solvents in concentration range of 5 millimolar to 400 millimolar, most preferably in concentrations of 20 millimolar. 5 μl of each concentration are used for evaluation of antiresorptive activity in vitro. In control experiments, 5 μl of appropriate solvent is used in lieu of test compound. Femur bones are isolated from chick embryos on day 11 post-ovulation. The adhering soft connective tissue is completely removed. Each femur bone is then placed in a drop of phosphate buffered saline (PBS) and is transferred to BGJb culture medium containing ^45CaCl2 and incubated for 2 h. Labeled femur bones are washed 2-3 times with PBS and transferred to BGJb medium containing parathyroid hormone and cultured for 96 h in the presence or absence of the compound of invention or the vehicle in BGJb medium. Contralateral femur of each fetus serves as corresponding control. Culture medium with the respective treatment in each well is changed after 48 h. On termination of the culture at 96 h, bones are transferred to 0.1 N HCl for 24 h. Radioactivity due to ^45Ca in the spent medium collected at 48 and 96 h of culture and HCl extract at 96 h of culture is quantified by Liquid Scintillation Spectrophotometer in 10 ml of the scintillation fluid. Bone resorbing activity is expressed as percentage of ^45Ca released into the culture medium and the effect of the compound of invention as percent of the corresponding contra-lateral control or T/C ratio as shown below:
# Appropriate solvents are selected from solvents like water, normal saline, phosphate buffered saline, phosphate buffer, DMSO alone or in a suitable combination thereof.
# It was devoid of any pos-coital antifertility and estrogenic activities in rats.
# immature OVX rats [2] = test: Estrogen agonistic activity: uterine weight and morphometry in immature OVX rats; assay type: in vivo, rat
# Description: Test Procedure for Evaluation of Estrogen Agonistic Activity:
# Twenty-one-day-old immature female rats are bilaterally ovariectomized under light ether anesthesia and, after post-operative rest for 7 days, are randomized into different treatment groups. Each rat receives the compound of the invention once daily for 3 consecutive days on days 28-30 of age. A separate group consisting of animals receiving only the vehicle for similar duration serves as control. At autopsy 24 h after the last treatment on day 31 of age, vaginal smear of each rat is taken and uterus is carefully excised, gently blotted, weighed and fixed for histology and histomorphometry using image analysis. Premature opening of vagina, cornification of vaginal epithelium, increase in uterine fresh weight, total uterine and endometrial area and uterine luminal epithelial cell height are taken as parameters for evaluation of estrogen agonistic activity in comparison to rats of vehicle control group (Table 6).
# (§1) For image analysis in estrogen agonistic activity evaluation studies, paraffin sections (6 μm thick) of the uterus stained with haematoxylin and eosin were analyzed microscopically. To determine changes in uterine tissue components, areas of whole uterus and endometrium and the thickness of uterine epithelium were measured using a computer-image analysis system (BioVis, Expert Vision, India). Briefly, microscopic images of uterus acquired through a CCD camera were loaded in to the image analysis program and spatially calibrated against a stage micrometer image taken at the same magnification. Using thresholding and line tools, the regions for measurements were selected and the area (mm^2) of whole uterine transection excluding the luminal space, the area (mm^2) of the endometrium only, and the thickness (μm) of luminal epithelial lining were measured. Luminal epithelial thickness data was the average of measurements made at 6 randomly selected sites of the lining (Table 7).
# [3] = system: ovariectomized (OVX) female Sprague-Dawley rats; test: Antiosteoporosis activity in vivo: bone mineral density in ovariectomized rats; parameters: species or system rat; details: oral once daily days 1-30 post-ovariectomy
# Description: Test Procedure for Evaluation of Antiosteoporosis Activity in Vivo:
# (§2) The in vivo antiosteoporosis activity is evaluated in colony-bred adult (3-4 month old) female Sprague-Dawley rats or female retired breeder Sprague-Dawley rats ([…]; parity≧3). Animals are bilaterally ovariectomized (OVX) under light ether anesthesia and treated with the compound of the present invention, 17-alfa-ethynylestradiol (EE) or the vehicle once daily on days 1-30 post-ovariectomy (day 1: day of bilateral ovariectomy) by the oral route. One group consisting of females is sham operated and treated similarly with the vehicle. Animals of all the groups are autopsied 24 h after the last treatment. Before autopsy, 24 h fasting urine samples are collected in fresh containers using all-glass metabolic cages and stored at −20° C. until analyzed for calcium, phosphorus and creatinine. At autopsy, about 5 ml blood samples are collected by cardiac puncture from each rat under light ether anesthesia and serum is isolated and stored at −20° C. until analyzed for total and bone specific alkaline phosphatase, osteocalcin and calcium. Uterus of each rat is carefully excised, gently blotted, weighed and fixed for histology. Representative sections (5 μm) from each uterus are stained with haematoxylin and eosin. Femur and tibia of each rat are then dissected free of adhering tissue, fixed in 70% ethanol in physiological saline and stored at −20° C. until Bone Mineral Density (BMD) measurement. Before autopsy, whole body scan of each rat for measurement of BMD is performed on an Hologic QDR-4500A fan-beam densitometer, calibrated daily with Hologic hydroxyapatite anthropomorphic spine phantom using manufacturer provided software for small animals. BMD measurement of isolated bones is performed using identical regions of interest. Serum total alkaline phosphatase, osteocalcin, calcium ion content and urinary calcium and creatinine are estimated colorimetrically using commercial kits (Table 2).
# retired breeder OVX rats = test: Estrogen agonistic activity: uterine weight and morphometry in retired breeder OVX rats; assay type: in vivo, rat
# Description: as §2, §1
# [4] = system: ovariectomized (OVX) female Sprague-Dawley rats; test: Anti-hyperlipidaemic activity: blood serum total cholesterol in OVX rats; assay type: in vivo, rat; details: days 1-30; for Total Cholesterol: blood serum
# Description: Test Procedure for Evaluation of Anti-Hyperlipidaemic Activity:
# The in vivo anti-hyperlipidaemic activity is evaluated in colony-bred adult (3-4 month old) female Sprague-Dawley rats or female retired breeder Sprague-Dawley rats ([…]; parity≧3). Animals are bilaterally ovariectomized (OVX) under light ether anesthesia and treated with the compound of the present invention, 17-alfa-ethynylestradiol (EE) or the vehicle once daily on days 1-30 post-ovariectomy (day 1: day of bilateral ovariectomy) by the oral route. One group consisting of females is sham operated and treated similarly with the vehicle. Animals of all the groups are autopsied 24 h after the last treatment. At autopsy, about 5 ml blood samples are collected by cardiac puncture from each rat under light ether anesthesia and serum is isolated and stored at −20° C. until analyzed for total cholesterol. The total cholesterol concentration is measured by a timed-end point method using a Beckman Synchron CX autoanalyser. In the reaction, cholesterol estrase hydrolyses cholesterol esters to free cholesterol and fatty acids. Free cholesterol is oxidized to cholestene-3-one and H2O2 by cholesterol oxidase. Peroxidase catalyses the reaction of H2O2 with 4-amino antipyrine and phenol to produce a colored quinoneimine product. Absorbance is recorded at 520 nm (Table 3).
# MCF-7 cells = test: Antiproliferative/cytotoxic activity in cultured MCF-7 cells (SRB assay); details: 48 h incubation
# immature OVX rats [5] = test: Estrogen antagonistic activity: inhibition of EE-induced uterine weight gain in immature OVX rats; assay type: in vivo, rat; details: daily dose 10 mg/kg with 0.02 mg/kg 17-alfa-ethynylestradiol, 3 days
# Description: Test Procedure for Evaluation of Estrogen Antagonistic Activity:
# Twenty-one-day-old immature female rats are bilaterally ovariectomized under light ether anesthesia and after post-operative rest for 7 days, are randomized into different treatment groups. Each rat receives the compounds of the invention and 0.02 mg/kg dose of 17-alfa-ethynylestradiol in 10% ethanol-distilled water once daily for 3 consecutive days on days 28-30 of age. A separate group consisting of animals receiving only 17-alfa-ethynylestradiol (0.02 mg/kg) in 10% ethanol-distilled water for similar duration are used for comparison. At autopsy on day 31 of age, vaginal smear of each rat is taken and uterus is carefully excised, gently blotted, weighed and fixed for histology and histomorphometry using image analysis. Inhibition in 17-alfa-ethynylestradiol-induced premature opening of vagina, cornification of vaginal epithelium, increase in uterine fresh weight, total uterine and endometrial area and uterine luminal epithelial cell height are taken as parameters for evaluation of estrogen antagonistic activity (Table 8).
compound,measurement,setting,value
"CS(=O)(=O)c1ccc(C(=O)c2cccc3ccccc23)cc1 [Example 2, (4-Methylsulfonylphenyl)-naphth-1-yl-ketone]",melting point,,150 °C
"CCSc1ccc(C(=O)c2cccc3ccccc23)cc1 [Example 11, (4-Ethylthiophenyl)-naphth-1-yl-ketone]",T/C Ratio,[1]; 100 μM,0.77
"C#C[C@]1(O)CC[C@H]2[C@@H]3CCc4cc(O)ccc4[C@H]3CC[C@@]21C [EE, 17-alfa-ethynylestradiol, reference compound]",Endometrium Epithelial Cell Height,immature OVX rats [2]; daily dose 0.01 mg/kg,33.65 μm
same,Endometrium Total Area,immature OVX rats [2]; daily dose 0.01 mg/kg,0.57 mm^2
same,"Increase in uterine weight: Percent of OVX + vehicle treatment group, Percent Increase",immature OVX rats [2]; daily dose 0.01 mg/kg,419%
same,Uterus Total Area,immature OVX rats [2]; daily dose 0.01 mg/kg,1.21 Mm^2
same,"Increase in BMD (g/cm^2): Percent of OVX + vehicle treatment group, Percent Increase",[3]; Femur Global,16.1%
same,"Increase in BMD (g/cm^2): Percent of OVX + vehicle treatment group, Percent Increase",[3]; Femur Neck,13.5%
same,"Increase in BMD (g/cm^2): Percent of OVX + vehicle treatment group, Percent Increase",[3]; Tibia Global,3.8%
same,"Increase in BMD (g/cm^2): Percent of OVX + vehicle treatment group, Percent Increase",[3]; Tibia proximal,25.2%
same,Endometrium Epithelial Cell Height,retired breeder OVX rats; daily dose 0.5 mg/kg,46.36 μm
same,Endometrium Total Area,retired breeder OVX rats; daily dose 0.5 mg/kg,4.07 mm^2
same,"Increase in uterine weight: Percent of OVX + vehicle treatment group, Percent Increase",retired breeder OVX rats; daily dose 0.5 mg/kg,260%
same,Uterus Total Area,retired breeder OVX rats; daily dose 0.5 mg/kg,6.86 Mm^2
same,Total Cholesterol,[4]; daily dose 0.50 mg/kg oral,<5 mg/dL
"O=C(c1ccc(OCCN2CCCCC2)cc1)c1c(-c2ccc(O)cc2)sc2cc(O)ccc12 [Raloxifene, reference compound]",T/C,"[1]; chick foetal bone assay, concentration not stated",0.6
"CS(=O)(=O)c1ccc(C(O)c2cccc3ccccc23)cc1 (stereo not drawn) [Example 4, (4-Methylsulfonylphenyl)-naphth-1-yl-carbinol]",melting point,,160 °C
same,T/C Ratio,[1]; 100 μM,0.97
"CSc1ccc(C(O)c2cccc3ccccc23)cc1 (stereo not drawn) [Example 3, (4-Methylthiophenyl)-naphth-1-yl-carbinol]",melting point,,80 °C
same,T/C Ratio,[1]; 50 μM,1.41
"CS(=O)(=O)c1ccc(C(=O)c2ccc3ccccc3c2)cc1 [Example 8, (4-Methylsulfonylphenyl)-naphth-2-yl-ketone]",melting point,,160 °C
"CSc1ccc(C(=O)c2cccc3ccccc23)cc1 [Example 1, (4-Methylthiophenyl)-(naphth-1-yl)-ketone]",LC50,MCF-7 cells,Inactive
same,Endometrium Epithelial Cell Height,immature OVX rats [2]; daily dose 10 mg/kg,7.16 μm
same,Endometrium Total Area,immature OVX rats [2]; daily dose 10 mg/kg,0.085 mm^2
same,"Increase in uterine weight: Percent of OVX + vehicle treatment group, Percent Increase",immature OVX rats [2]; daily dose 10 mg/kg,16%
same,Uterus Total Area,immature OVX rats [2]; daily dose 10 mg/kg,0.105 Mm^2
same,"Increase in BMD (g/cm^2): Percent of OVX + vehicle treatment group, Percent Increase",[3]; Femur Global,8%
same,"Increase in BMD (g/cm^2): Percent of OVX + vehicle treatment group, Percent Increase",[3]; Femur Neck,13%
same,"Increase in BMD (g/cm^2): Percent of OVX + vehicle treatment group, Percent Increase",[3]; Tibia Global,3.7%
same,"Increase in BMD (g/cm^2): Percent of OVX + vehicle treatment group, Percent Increase",[3]; Tibia proximal,13.8%
same,Endometrium Epithelial Cell Height,retired breeder OVX rats; daily dose 10 mg/kg,9.63 μm
same,Endometrium Total Area,retired breeder OVX rats; daily dose 10 mg/kg,0.37 mm^2
same,"Increase in uterine weight: Percent of OVX + vehicle treatment group, Percent Increase",retired breeder OVX rats; daily dose 10 mg/kg,41%
same,Uterus Total Area,retired breeder OVX rats; daily dose 10 mg/kg,1.38 Mm^2
same,T/C Ratio,[1]; 25 μM,0.77
same,T/C Ratio,[1]; 50 μM,0.60
same,T/C Ratio,[1]; 100 μM,0.44
same,Total Cholesterol,[4]; daily dose 10 mg/kg oral,20.00 mg/dL
same,% Change in blood serum total cholesterol concentration,[4]; daily dose 10 mg/kg oral,21.94%
same,Percent inhibition in EE induced uterine weight gain,immature OVX rats [5],32%
"CS(=O)(=O)c1ccc(C(O)c2ccc3ccccc3c2)cc1 (stereo not drawn) [Example 9, (4-Methylsulfonylphenyl)-naphth-2-yl-carbinol]",melting point,,100 °C
same,T/C Ratio,[1]; 100 μM,1.15
